Experimental data published in article PMC11304990, “Identification of mitochondrial ATP synthase as the cellular target of Ru-polypyridyl-β-carboline complexes by affinity-based protein profiling” (National Science Review, 2024).

Legend:
[1] = test system: lung adenocarcinoma (A549); assay: MTT antiproliferative assay, A549; type: cell-based, human; settings: 72 h
Excerpt: (§1) Ru3–Ru9 also show a certain selectivity for cancer cells over normal cells, and Ru2, Ru3, Ru5 and Ru9 show higher selectivity index (SI) values than the other complexes.
(§2) PA-BPP was then used to confirm the molecular targets of Ru5 by modifying it with a ‘minimalist’ biorthogonal handle-containing photo-cross-linker. Through our structure–activity relationship analysis and comparison with other ruthenium complexes utilizing phen as the auxiliary ligands with similar coordination structures (using cisplatin as a control), we propose that the β-carboline ligands play an important role in antiproliferative activity. To maintain the binding characteristics of the β-carboline moiety with the targeted biomolecules, we linked the photo-cross-linker to one of the auxiliary ligands of Ru5.

[2] = test system: triple negative breast cancer (MDA-MB-231); assay: MTT antiproliferative assay, MDA-MB-231; type: cell-based, human; settings: 72 h
Excerpt: as §1, §2

[3] = Aqueous solubility by concentration-absorbance linearity; type: physicochemical; settings: PBS with 1% DMSO
Excerpt: Subsequently, the lipophilicity and aqueous solubility of Ru1–Ru9 were investigated.

A549 xenograft = A549 xenograft nude mice model; type: in vivo
Protocol: Lastly, the in vivo anticancer activity of Ru5 was assessed via a A549 xenograft nude mice model (Fig. 5A). Mice were treated with PBS, cisplatin (5 mg kg^−1) or Ru5 (5 mg kg^−1) for 14 days, during which body weights and tumor volumes were monitored.
Figure 5. […] (A) Schematic illustration of in vivo therapeutic protocol. (B) Graphs of tumor volumes of nude mice after treatment with Ru5 (5 mg kg^−1), cisplatin (5 mg kg^−1) and PBS. The intratumoral injections were performed every 7 days. Data are presented as means ± SD, n = 5. (C) Immunohistochemical analysis of hematoxylin-eosin (H&E) staining in tumor sections from mice with different treatments. Scale bar: 50 μm. (D) Tumors separated from nude mice. (E) The average body weight of the mice in each group during the treatment process. Data are presented as means ± SD, n = 5. (F) H&E staining of the main organs from mice with different treatments. Scale bar: 100 μm.

A549 cells = assay: Mitochondrial respiration (OCR) by Seahorse XF analyzer; type: cell-based, human; settings: 5 μM
Excerpt: As Ru5 is located in mitochondria and inhibits ATPase related to mitochondrial respiration, we then evaluated its impact on oxygen consumption rate (OCR) using the Seahorse XF analyzer. Ru5 inhibits ATP-linked respiration, basal respiration and maximal respiration capacity, and it also increases the proton leak and alters non-mitochondrial respiration (Fig. 2A and Fig. S43). Accordingly, Ru5 treatment leads to an increase in the opening of the mitochondrial permeability transition pore (MPTP) of A549 in a concentration-dependent manner (Fig. 2B). […] The colocalization of the fluorescence of dihydrorhodamine 123 (DHR-123) with MitoTracker Deep Red (MTDR) indicates ROS are mainly generated in mitochondria (Fig. 2E).
Figure 2. […] (A) Impact of Ru5 (5 μM) on mitochondrial respiration of A549 cells measured by Seahorse. The OCR was measured under basal conditions, and after the sequential addition of oligomycin (1 μM), carbonyl cyanide 4-(trifluoromethoxy)phenylhydrazone (FCCP, 0.8 μM) and a mixture of rotenone (0.5 μM) and antimycin A (0.5 μM, R&A). […] The cells were treated with Ru5 for 6 h and analyzed by flow cytometry. λex = 488 nm, λem = 520 ± 20 nm. (C) Impact of Ru5 (5 μM) on MMP measured by JC-1 staining. […]

F[P-](F)(F)(F)(F)F.F[P-](F)(F)(F)(F)F.[Ru+2].c1ccc2c(c1)[nH]c1c(-c3ncc[nH]3)nccc12.c1cnc2c(c1)ccc1cccnc12.c1cnc2c(c1)ccc1cccnc12 [Ru5]
IC50 [1]: 2.1 ± 0.8 µM
IC50 [2]: 7.7 ± 0.2 µM
Linear relationship between absorbance and concentration up to [3]: at least 100 μM
Body weight loss (A549 xenograft; 5 mg kg−1, 14 days): no significant body weight loss
Organ damage (H&E staining of the main organs) (A549 xenograft; 5 mg kg−1, 14 days): no significant
Tumor inhibition compared with cisplatin and PBS (A549 xenograft; 5 mg kg−1, 14 days): better tumor inhibition
Tumor growth inhibitory rate (A549 xenograft; 5 mg kg−1, intratumoral injection every 7 days, 14 days, compared with the control groups): ~89.6%
ATP-linked respiration, basal respiration and maximal respiration capacity (OCR) (A549 cells): inhibits
